These results are taken from US20220249606A1, “Method of treatment of degenerative diseases caused by membrane channel-forming peptides fragments” (Zarbio, priority 2021, published 2022).

A short description of series [1]: Flow cytometric calcium permeabilization of phosphatidylserine liposomes (Fluo-3/DiD). In kind it is biochemical. The note with it: for permeabilization of negatively charged (phosphatidylserine) liposomes to calcium: 400 nm liposomes, Fluo-3, flow cytometer. As to the method:
(§1) The figure is a composite of data which was presented and analyzed in detail in (Zaretsky and Zaretskaia 2020, Zaretsky and Zaretskaia 2020). Liposomes (400 nm) were made of either phosphatidylserine (A-E, negatively charged lipid) or phosphatidylcholine (F-H, neutral lipid) with added DiD and were extruded in the Ca-free buffer containing 1 mM Fluo-3. After the addition of calcium, aliquots of peptide were added. Ionomycin was used as a positive control. Fluorescence of liposomes was analyzed using a flow cytometer. Each dot at the graph represent a single liposome registered in the flow. The intensity of DiD fluorescence characterizes the amount of membrane material in the liposome, while the fluorescence of Fluo-3 depends on the intraliposomal presence of calcium. […] The liposomes inside rectangle (area R1) are permeabilized, and the number of liposomes which were counted to be within the area is shown.
Liposomes with embedded ion-sensitive probe are used as a test system. Liposomes are extruded from phosphatidylserine containing membrane probe (i.e. DiD) in a calcium-free buffer containing ion-sensitive probe (i.e. Fluo-4) and volume probe (i.e. dextran-tetramethylrhodamin) or membrane probe (DiD). Extravesicular probes are cleared using either centrifugation, or dialysis. After the addition of calcium, the intravesicular calcium-sensing probe remain non-fluorescent because membranes are not permeable to calcium. If membrane channels are formed, calcium enters permeable liposomes, saturates the calcium-sensing dye, so the liposome becomes fluorescent. The number of fluorescent liposomes is an estimate of the number of channel-forming units in the solution.
For orientation: Flow cytometry measures light scatter and fluorescence of single cells or particles in a stream.

A short description of series [2]: Flow cytometric calcium permeabilization of phosphatidylcholine liposomes (Fluo-3/DiD). The note with it: 400 nm liposomes, Fluo-3, flow cytometer. In kind it is biochemical. As for the experimental part:
as §1

For series [3], the system named is Aβ-induced apoptosis in the brain. The note with it: cited from earlier work; for Aβ-induced apoptosis (TUNEL marker in the brain) / accumulation of Aβ immunoreactivity / amyloid: chronic Aβ infusion with simultaneous i.c.v. infusion of inhibitor.
For another series, the target named is amyloid channels (Homo sapiens, UniProt P05067). The note with it: cited from earlier work.
The conditions of series [4]: cited from earlier work.
The test system of series [5] is 15 cells derived from pancreatic islets of Langerhans. The note with it: cited from earlier work; for beta-amyloid-induced drop in cell viability: two cell lines, not specified.
The test system of series [6] is rat primary cortical cultures. The note with it: MTT, different concentrations of Aβ; cited from earlier work.
Series [7] relates to 15 cells derived from pancreatic islets of Langerhans. The note with it: cited from earlier work; for amylin-induced drop in cell viability / cellular toxicity: pancreatic islet cell line.
Another series concerns Aβ1-42 toxicity. The note with it: Aβ1-42, Aksenov 1996; cited from earlier work.
Series [8] has as its system Aβ1-42-induced drop of cell survival. The note with it: Tizon 2010; cited from earlier work.
The mark [9] stands for this setting: MTT, listed as al-anti-chymotrypsin.

“Also recorded” adds a separate entry of the source. Where two headings read alike, the source gives them in different places.

Sequence of amyloid channels (P05067 672-711): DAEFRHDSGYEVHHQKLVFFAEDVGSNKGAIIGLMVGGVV

As for `C[C@H](CCC(=O)O)C[C@H](C)C[C@H](C)C(=O)/C=C(\O)[C@H](C)C[C@H](C)C/C=C/[C@@H](C)[C@@H](O)[C@@H](C)[C@@H](O)C[C@@H]1CC[C@@](C)([C@H]2CC[C@@](C)([C@@H](C)O)O2)O1` [ionomycin], the “permeabilization of negatively charged (phosphatidylserine) liposomes to calcium” value in series [1] was “permeabilizes liposomes”. Moreover, in series [2], the “permeabilization of neutral (phosphatidylcholine) liposomes to calcium” value is “permeabilizes thousands of liposomes”.
As for `CC(=O)N[C@@H](CC(C)C)C(=O)N[C@@H](CC(C)C)C(=O)N[C@H](C=O)CCCNC(=N)N` [leupeptin], in series [3] (rats), the “Aβ-induced apoptosis (TUNEL marker in the brain)” value was “promoted apoptosis”; the “accumulation of Aβ immunoreactivity / amyloid” value is “accumulation of extracellular and intracellular Aβ immunoreactivity”. The “apoptosis by the inhibitor itself (spontaneously occurring, TUNEL)” value in series [3] (rats, inhibitor without Aβ) is “tends to increase apoptosis”.
For the molecule `NC(CO)(CO)CO` [tromethamine], on amyloid channels, the “blockade of smaller amyloid channels (<400 pS)” value is listed as “effectively blocked” and the “blockade of super-high conductance giant channels (>1 nS)” value is on record as “less effective”.
In the case of Aβ1-42: full-length amyloid peptide, the “permeabilization of negatively charged (phosphatidylserine) liposomes to calcium” value in series [1] is “ineffective; also recorded: does not permeabilize liposomal membranes”.
On to “Aβ22-35: longer beta-amyloid fragment without positive charge, non-channel-forming (EDVGSNKGAIIGLM; Amyloid-beta protein 42; UniProt P05067 693-706, looked up, fragment)”, for which, in [1], the “permeabilization of negatively charged (phosphatidylserine) liposomes to calcium” value was “does not create a noticeable number of channels; also recorded: does not permeabilize liposomes”.
Regarding “Aβ25-35: positively charged short beta-amyloid fragment, channel-forming (GSNKGAIIGLM; Amyloid-beta protein 42; UniProt P05067 696-706, looked up, fragment)”, the “permeabilization of negatively charged (phosphatidylserine) liposomes to calcium” value in series [1] is reported as “Membrane permeabilization occurs; also recorded: creates multiple liposomes permeable to calcium”. Moreover, the “molecules of peptide out of which one channel is formed” value in [1] (model conditions) was “approximately 10^12 molecules”. In addition, the “permeabilization of neutral (phosphatidylcholine) liposomes to calcium” value in [2] is “does not permeabilize liposomes; also recorded: not permeabilized”. In addition, in [4] (acidic pH (pH 5.0), 20 μM peptide), the “share of channels with high conductance” value was “more than 30%”. Also, the “conductance of channels formed (upper value)” value in [4] (planar lipid bilayers) is on record as “up to 1 nS”.
Regarding aprotinin, the “apoptosis by the inhibitor itself (spontaneously occurring, TUNEL)” value in series [3] (rat, in vivo) is on record as “tends to decrease even spontaneously occurring apoptosis”. Moreover, in series [3] (rats), the “Aβ-induced apoptosis (TUNEL marker in the brain)” value was “prevented Aβ-induced apoptosis” and the “accumulation of Aβ immunoreactivity / amyloid” value is listed as “did not exacerbate intracellular accumulation of amyloid”.

B1: α1-anti-chymotrypsin (protein, UniProt P01011 24-423, looked up)
Alpha-1-antichymotrypsin: HPNSPLDEENLTQENQDRGTHVDLGLASANVDFAFSLYKQLVLKAPDKNVIFSPLSISTALAFLSLGAHNTTLTEILKGLKFNLTETSEAEIHQSFQHLLRTLNQSSDELQLSMGNAMFVKEQLSLLDRFTEDAKRLYGSEAFATDFQDSAAAKKLINDYVKNGTRGKITDLIKDLDSQTMMVLVNYIFFKAKWEMPFDPQDTHQSRFYLSKKKWVMVPMMSLHHLTIPYFRDEELSCTVVELKYTGNASALFILPDQDKMEEVEAMLLPETLKRWRDSLEFREIGELYLPKFSISRDYNLNDILLQLGIEEAFTSKADLSGITGARNLAVSQVVHKAVLDVFEEGTEASAATAVKITLLSALVETRTIVRFNRPFLMIIVPTDTQNIFFMSKVTNPKQA
Regarding B1, the “optimal dose for inhibition of amyloid toxicity” value in series [5] (15 cells (IS cells), MTT, different concentrations of Aβ) is 10^−7 M; in [6], 10^−8 M. For the same molecule, the results for the “beta-amyloid-induced drop in cell viability” value in series [5] (MTT) and in series [5] (setting [9]) were “can protect against Aβ-induced drop in cell viability” and “prevented”, respectively. For the same molecule, the “effect of further increase of ACT concentration on protection against beta-amyloid” value in series [5] (above optimal dose, bell-shaped dose-dependence) is given as “disappearance of protection; also recorded: bell-shaped dose-dependence of protection”. The “protection against beta-amyloid-induced drop in cell viability” value in series [5] (in some conditions, cell line not specified (15 cells or rat primary cortical cultures), MTT) is on record as 100%. Besides, the “amylin-induced drop in cell viability / cellular toxicity” value was “prevent amylin-induced cellular toxicity” in series [7] (MTT) and “prevented” in series [7] (setting [9]). Further, the protection against amylin in [7] (MTT) is listed as less than 100%. In addition, the “effect of further increase of ACT concentration on protection against amylin” value in [7] (above optimal dose) is “significantly decreased the protective effect”. Further, the “effect on fibril formation” value in the series with Aβ1-42 toxicity was “without affecting fibril formation”.

B2: cystatin C (protein, UniProt P01034 27-146, looked up)
Cystatin-C: SSPGKPPRLVGGPMDASVEEEGVRRALDFAVGEYNKASNDMYHSRALQVVRARKQIVAGVNYFLDVELGRTTCTKTQPNLDNCPFHDQPHLKRKAFCSFQIYAVPWQGTMTLSKSTCQDA
Take B2: the “drop of cell survival induced by Aβ1-42” value in [8] is given as “prevented the drop of cell survival induced by Aβ1-42”.
